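Cultured in 96-well plates, cells were exposed to test compound for 48 hours across five concentrations. At the GI50, growth is halved.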 Active and inactive are the calls of the source. Cut-off read from the data, not from the text of the source: active = GI50 up to about 1.1 µM and inactive = higher.
Columns and labels:
Test in all cases: inhibition of tumour cell growth, NCI panel, 48 h
SW-620 = test system: SW-620
SF-295 = test system: SF-295
RXF 393 = test system: RXF 393
KM-20L2 = test system: KM-20L2
A549 = test system: A549
A498 = test system: A498
Malme-3M = test system: Malme-3M
MCF7 = test system: MCF7
NCI/ADR-RES = test system: NCI/ADR-RES
LOX IMVI = test system: LOX IMVI
RPMI-8226 = test system: RPMI-8226
HCC 2998 = test system: HCC 2998
HCT-116 = test system: HCT-116
IGROV-1 = test system: IGROV-1
HOP-62 = test system: HOP-62
OVCAR-3 = test system: OVCAR-3
SK-MEL-2 = test system: SK-MEL-2
KM12 = test system: KM12
NCI-H226 = test system: NCI-H226
SK-MEL-28 = test system: SK-MEL-28
SN12C = test system: SN12C
CAKI-1 = test system: CAKI-1
MOLT-4 = test system: MOLT-4
CCRF-CEM = test system: CCRF-CEM
SF-539 = test system: SF-539
XF498 = test system: XF498
DMS-114 = test system: DMS-114
UACC-62 = test system: UACC-62
NCI-H522 = test system: NCI-H522
HL-60 = test system: HL-60
SK-OV-3 = test system: SK-OV-3
SNB-78 = test system: SNB-78
U-251 = test system: U-251
HOP-92 = test system: HOP-92
HT-29 = test system: HT-29
DLD-1 = test system: DLD-1
SNB-19 = test system: SNB-19
K562 = test system: K562
HOP-18 = test system: HOP-18
COLO 205 = test system: COLO 205
SK-MEL-5 = test system: SK-MEL-5
OVCAR-5 = test system: OVCAR-5
HCT-15 = test system: HCT-15
UO-31 = test system: UO-31
OVCAR-4 = test system: OVCAR-4
NCI-H23 = test system: NCI-H23
DMS-273 = test system: DMS-273
OVCAR-8 = test system: OVCAR-8
SF-268 = test system: SF-268
NCI-H460 = test system: NCI-H460
EKVX = test system: EKVX
M19-MEL = test system: M19-MEL
SNB-75 = test system: SNB-75
UACC-257 = test system: UACC-257
LXFL 529 = test system: LXFL 529
M14 = test system: M14
DU-145 = test system: DU-145
Hs-578T = test system: Hs-578T
ACHN = test system: ACHN
SR = test system: SR
786-0 = test system: 786-0
MDA-MB-435 = test system: MDA-MB-435
TK-10 = test system: TK-10
BT-549 = test system: BT-549
T47D = test system: T47D

`CN(C)C(=O)OCOC(=O)N(C)C` was tested, and the GI50 (SW-620) was > 100 µM (inactive), the GI50 (SF-295) was > 100 µM (inactive) and the GI50 (RXF 393) was > 100 µM (inactive). For the same compound, the GI50 (KM-20L2) was > 100 µM (inactive), the GI50 (A549) was > 100 µM (inactive) and the GI50 (A498) was > 100 µM (inactive). The GI50 (Malme-3M) was > 100 µM (inactive), the GI50 (MCF7) was > 100 µM (inactive) and the GI50 (NCI/ADR-RES) was > 100 µM (inactive). For the same compound, the GI50 (LOX IMVI) was > 100 µM (inactive), the GI50 (RPMI-8226) was > 100 µM (inactive) and the GI50 (HCC 2998) was > 91.8 µM (inactive). The GI50 (HCT-116) was > 100 µM (inactive), the GI50 (IGROV-1) was > 100 µM (inactive) and the GI50 (HOP-62) was > 100 µM (inactive). The GI50 (OVCAR-3) was > 100 µM (inactive), the GI50 (SK-MEL-2) was > 100 µM (inactive) and the GI50 (KM12) was > 100 µM (inactive). For the same compound, the GI50 (NCI-H226) was > 100 µM (inactive), the GI50 (SK-MEL-28) was > 100 µM (inactive) and the GI50 (SN12C) was > 100 µM (inactive). For the same compound, the GI50 (CAKI-1) was > 100 µM (inactive), the GI50 (MOLT-4) was > 100 µM (inactive) and the GI50 (CCRF-CEM) was > 100 µM (inactive). For the same compound, the GI50 (SF-539) was > 100 µM (inactive), the GI50 (XF498) was > 100 µM (inactive) and the GI50 (DMS-114) was > 100 µM (inactive). For the same compound, the GI50 (UACC-62) was > 100 µM (inactive), the GI50 (NCI-H522) was > 100 µM (inactive) and the GI50 (HL-60) was > 31.6 µM (inactive). For the same compound, the GI50 (SK-OV-3) was > 100 µM (inactive), the GI50 (SNB-78) was > 100 µM (inactive) and the GI50 (U-251) was > 100 µM (inactive). The GI50 (HOP-92) was > 92.5 µM (inactive), the GI50 (HT-29) was > 100 µM (inactive) and the GI50 (DLD-1) was > 100 µM (inactive). For the same compound, the GI50 (SNB-19) was > 100 µM (inactive), the GI50 (K562) was > 100 µM (inactive) and the GI50 (HOP-18) was > 100 µM (inactive). The GI50 (COLO 205) was > 100 µM (inactive), the GI50 (SK-MEL-5) was > 100 µM (inactive) and the GI50 (OVCAR-5) was > 100 µM (inactive). The GI50 (HCT-15) was over 100 µM, the GI50 (UO-31) was > 100 µM (inactive) and the GI50 (OVCAR-4) was > 100 µM (inactive). The GI50 (NCI-H23) was > 100 µM (inactive), the GI50 (DMS-273) was > 100 µM (inactive) and the GI50 (OVCAR-8) was > 100 µM (inactive). For the same compound, the GI50 (SF-268) was > 100 µM (inactive), the GI50 (NCI-H460) was > 100 µM (inactive) and the GI50 (EKVX) was > 100 µM (inactive). For the same compound, the GI50 (M19-MEL) was > 100 µM (inactive) and the GI50 (SNB-75) was > 82.8 µM (inactive).
For `CC1=C(N2CC2)C(=O)c2nc3n(c2C1=O)CCC3O` (stereo unspecified), the GI50 (SW-620) was 0.153 µM (active), the GI50 (SF-295) was 0.166 µM (active) and the GI50 (UACC-257) was 0.226 µM (active). The GI50 (RXF 393) was 0.187 µM (active), the GI50 (KM-20L2) was 0.804 µM (active) and the GI50 (LXFL 529) was 0.679 µM (active). For the same compound, the GI50 (A549) was 0.215 µM (active), the GI50 (M14) was 1.32 µM (inactive) and the GI50 (A498) was 0.205 µM (active). For the same compound, the GI50 (Malme-3M) was 0.176 µM (active), the GI50 (LOX IMVI) was 0.619 µM (active) and the GI50 (RPMI-8226) was 0.472 µM (active). For the same compound, the GI50 (HCC 2998) was 0.151 µM (active), the GI50 (DU-145) was 0.0111 µM (active) and the GI50 (Hs-578T) was 0.0239 µM (active). The GI50 (ACHN) was 0.152 µM (active), the GI50 (HCT-116) was 0.193 µM (active) and the GI50 (IGROV-1) was 0.461 µM (active). For the same compound, the GI50 (HOP-62) was 0.126 µM (active), the GI50 (OVCAR-3) was 0.275 µM (active) and the GI50 (SK-MEL-2) was 0.7 µM (active). For the same compound, the GI50 (KM12) was 0.233 µM (active), the GI50 (NCI-H226) was 0.697 µM (active) and the GI50 (SR) was 2.25 µM (inactive). The GI50 (SK-MEL-28) was 0.252 µM (active), the GI50 (SN12C) was 0.508 µM (active) and the GI50 (CAKI-1) was 0.275 µM (active). For the same compound, the GI50 (786-0) was 0.179 µM (active), the GI50 (MOLT-4) was 0.912 µM (active) and the GI50 (CCRF-CEM) was 1.36 µM (inactive). The GI50 (SF-539) was 0.254 µM (active), the GI50 (XF498) was 14.9 µM (inactive) and the GI50 (DMS-114) was 1.03 µM (active). The GI50 (MDA-MB-435) was 0.0188 µM (active), the GI50 (UACC-62) was 0.168 µM (active) and the GI50 (NCI-H522) was 0.145 µM (active). The GI50 (HL-60) was 0.566 µM (active), the GI50 (SK-OV-3) was 0.249 µM (active) and the GI50 (SNB-78) was 0.0296 µM (active). The GI50 (U-251) was 0.157 µM (active), the GI50 (HOP-92) was 2.23 µM (inactive) and the GI50 (HT-29) was 0.973 µM (active). For the same compound, the GI50 (DLD-1) was 1.18 µM (inactive), the GI50 (SNB-19) was 0.269 µM (active) and the GI50 (K562) was 0.472 µM (active). For the same compound, the GI50 (HOP-18) was 36.6 µM (inactive), the GI50 (COLO 205) was 0.41 µM (active) and the GI50 (SK-MEL-5) was 0.0216 µM (active). For the same compound, the GI50 (OVCAR-5) was 0.423 µM (active), the GI50 (HCT-15) was 13.6 µM and the GI50 (TK-10) was 0.09 µM (active). For the same compound, the GI50 (UO-31) was 0.388 µM (active), the GI50 (OVCAR-4) was 0.0662 µM (active) and the GI50 (BT-549) was 0.0171 µM (active). The GI50 (NCI-H23) was 0.104 µM (active), the GI50 (DMS-273) was 0.469 µM (active) and the GI50 (OVCAR-8) was 0.201 µM (active). For the same compound, the GI50 (SF-268) was 0.104 µM (active), the GI50 (NCI-H460) was 0.092 µM (active) and the GI50 (EKVX) was 0.438 µM (active). For the same compound, the GI50 (M19-MEL) was 1.54 µM (inactive), the GI50 (SNB-75) was 0.485 µM (active) and the GI50 (T47D) was 0.395 µM (active).
